Assay results published in patent US12128105B2, “Molecular degraders of extracellular proteins” (priority 2021, dated 2024).

Tests used:
[1] = tested on: α-DNP antibody; test: Endocytosis of α-DNP antibody in hepatocytes; assay type: cell-based; conditions: FIG. 6C; 12 hour time point
[2] = tested on: α-DNP antibody; test: Colocalization microscopy studies (Alexa 488 signal, EEA1/LAMP2); assay type: cell-based; conditions: FIG. 7A
Procedure: Cells were grown in 8-well microscope cell culture containers (Thermo, 177402) treated with polylysine (Fisher Scientific, 343810001). For all experiments, D-MoDE-A was used at a final concentration of 40 nM, and antibody was used at a final concentration of 100 nM. At 12 hours, cell culture media was removed and cells were washed with PBS once before fixation with 3.5% formaldehyde PBS solution for 13 minutes. Cells were then washed with PBS, and permeabilized for 5 minutes with 0.5% triton X-100 in PBS. Cells were blocked with 0.2% tween in TBS (Tween 20, AmericanBio, Ref AB02038-00500) and 3% BSA (Sigma, A9418) for one hour at room temperature. […] After incubation for 1 hour in a humidified chamber protected from light, cells were washed 3× with PBST for 5 minutes each. Cells were then treated with Alexa Fluor 568-labeled secondary antibody (Abcam, ab175473) at 1:500 dilution. Cells were washed 3× with PBST for 5 minutes each, then treated with PBS containing Hoechst stain (final concentration 1 μg/mL), incubated at room temperature for at least 10 minutes, and imaged. Cells were visualized using a Zeiss Axio Observer Z1 inverted microscope using 63× magnification under oil. Image analysis was performed on ZEN2 (blue edition) version 2.0.0.0.

[3] = tested on: α-DNP antibody; test: In vivo serum levels of α-DNP antibody in mice (ELISA); conditions: FIG. 8D, single variable dose
Procedure: In vivo experiments were performed under Yale University IACUC supervision following protocol entitled “pre-clinical evaluation of small molecule immunomodulators” (Protocol number 2017-11445). Experiments were performed in male nude mice purchased from Jackson Laboratory (NU/J, Stock No. 002019). Compounds were administered i.p. in a volume of 100 μL PBS. Approximately 25 μL of blood was collected at each time point by saphenous bleed. Antibody was administered as 40 μg in 100 μL i.p. Compounds were administered daily at the specified dose throughout the course of experiments. For data analysis, antibody levels were normalized to the recorded concentration of antibody observed in each mouse 24 hours after the i.p. administration.
ELISA analysis of serum samples was performed using MaxiSorp 96 well plates (Thermo, 44-2404-21). Plates were coated with 50 μL of BSA-DNP (Invitrogen, A23018) at 100 ug/mL in PBS and incubated at 4° C. overnight. Coating solution was then removed, and the plates were blocked with 2% BSA in PBS for 2 hours at room temperature, followed by washing twice with PBST (0.2% Tween). Serum samples were diluted in 2% BSA in PBS. […] The plates were then treated with TMB (Thermo 34028) followed by 2 M H2SO4 and analyzed for OD at 450 nm on a plate reader (BioTek Synergy 2). Sample concentrations were determined against a standard curve.

[4] = tested on: α-DNP antibody / ASGPR on hepatocytes; test: Ternary complex formation between hepatocytes and α-DNP antibody; assay type: cell-based

## CC(=O)N[C@H]1[C@H](OCCOCCOCCNC(=O)CCOCC(COCCC(=O)NCCOCCOCCO[C@@H]2O[C@H](CO)[C@H](O)[C@H](O)[C@H]2NC(C)=O)(COCCC(=O)NCCOCCOCCO[C@@H]2O[C@H](CO)[C@H](O)[C@H](O)[C@H]2NC(C)=O)NC(=O)CNC(=O)COCCOCCOCCNc2ccc([N+](=O)[O-])cc2[N+](=O)[O-])O[C@H](CO)[C@H](O)[C@@H]1O [D-MoDE-A]
[1]
  endocytosis of α-DNP antibody in hepatocytes: dependent on both α-DNP antibody and DMoDE-A concentration
[2]
  Alexa 488 signal in colocalization studies: dependent on the presence of α-DNP antibody and D-MoDE-A
[3]
  serum levels of α-DNP antibody: decrease in serum levels of α-DNP antibody
[4]; FIG. 6A
  formation of a ternary complex between hepatocytes and α-DNP antibody: dependent on the concentration of D-MoDE-A
[4]; FIG. 6B
  ternary complex formation in presence of competitive binders of ASGPR or α-DNP antibody: inhibited by competitive binders of either ASGPR or α-DNP antibody
